# Experimental data from US7655832B2, “Rapid-throughput teleost regeneration assay” (The State of Oregon Acting by and Through the State Board …, priority 2006, dated 2010).
# Legend:
# [1] = test system: adult zebrafish caudal fin regeneration; assay: Adult zebrafish caudal fin regeneration study; type: in vivo
# Text: The fish were transferred back to the tanks and were continuously exposed to vehicle or Beclomethasone until the end of the study. The exposure solutions were changed daily. The positive “hits” were of different chemical classes and using structure function analysis, a major cluster of compounds was identified as glucocorticoids (5 of the “hit” compounds). […] We selected glucocorticoids for further studies since this was the largest cluster of “hits”. […] This characteristic morphology occurs because the tissue lateral to the amputation plane continues to grow and partially collapses around the amputation plane. Since the adult fin regeneration model is more widely studied, it was important to determine if chemical “hits” identified in the larval screen would be predictive for the adult fin regeneration responses. Therefore, the regeneration response to glucocorticoids exposure on fin regeneration was also assessed in adult zebrafish.
# [2] = test system: zebrafish larvae caudal fin regeneration; assay: Larval fin regeneration with exposure in distinct time windows post amputation; type: in vivo; conditions: 1 μM
# Procedure: Once candidate agents have been determined to affect regeneration, a number of studies may be done. In one example, the IC50 of the candidate agent is determined using methods known in the art. In another example, a secondary screen is performed to aid in identification of a target of the candidate agent. This may be accomplished in many ways. For example, after amputation, the fin undergoes several stages of regeneration. In a first stage, cells migrate into the epithelial wound cap. In a second stage, the blastema differentiates within the wound cap. In a final stage, cells proliferate, leading to outgrowth of the new fin. Thus, by adding the candidate agent to the amputated teleost for short durations of time at different, defined, times after amputation, it is possible to identify which regenerative stage or stages are sensitive to the candidate agent. Specifically, agents present for 0 to 4 hours post amputation (hpa) would preferentially target epithelial wound cap formation. Agents present between 4 and 12 hpa may specifically target blastema formation, and agents present between 12 and 24 hpa may preferentially target cellular differentiation. Finally, agents present between 24 hpa and 72 hpa would target the cellular proliferation stage.
# Fertilized eggs were obtained from AB strain zebrafish (University of Oregon, Eugene, Oreg.) for all the experiments. […]
compound,measurement,setting,value
"CCC(=O)OCC(=O)[C@@]1(OC(=O)CC)[C@@H](C)C[C@H]2[C@@H]3CCC4=CC(=O)C=C[C@]4(C)[C@@]3(Cl)[C@@H](O)C[C@@]21C [Beclomethasone, Beclomethasone dipropionate]",adult caudal fin regeneration,"[1]; 0.005 mg/L waterborne, one day pre-exposure then continuous exposure",completely inhibited
same,new tissue in the adult fin,[1]; at 5 dpa,essentially no new tissue
same,"larval fin regeneration, exposure for four hours immediately following amputation",[2]; 0-4 hpa,failed to regenerate
same,"larval fin regeneration, exposure beginning at 4 hpa",[2]; from 4 hpa continuously until 3 dpa,completely regenerated their fins
